In patent US7402311B2, “Composition and method for treating non-bacterial cystitis” (priority 2003, dated 2008):

Assays:
[1] = system: patients without positive bacterial cultures localized to the prostatic fluid; assay: Example II: double blind study using 30 patients; assay type: in vivo
Experimental: A double blind study using 30 patients without positive bacterial cultures localized to the prostatic fluid are enrolled in a double blind study. Seventeen of the patients receive a composition comprised of quercetin in amount of 500 milligrams, bromelin in an amount of 10 milligrams, and papain in an amount of 10 milligrams as the active ingredients thereof. After a randomized study is completed, an additional fifteen patients are treated in an open label study with only the […]. […] The mean symptom score improves from 21.0 to 13.1 in the group receiving quercetin, but from 20.2 to 18.8 in the placebo group. This represents an improvement of 35%. In those patients which receive only the quercetin, without the papain and bromelin, with obtainable secretions, the white blood cell count in the decreases from 16.8 to 5.3, versus a decrease from 13.1 to 8.3 in the placebo patients.

[2] = Tests of bioavailability / transmural intestinal absorption of quercetin; assay type: in vivo; settings: quercetin alone
[3] = system: chronic interstitial cystitis syndromes; settings: patients taking quercetin alone; cited from earlier work

For O=c1c(O)c(-c2ccc(O)c(O)c2)oc2cc(O)cc(O)c12 [quercetin], the “improvement of mean symptom score” value ([1]; double blind study) was 35%, the “mean symptom score, after treatment” value ([1]; double blind study, end value) was 13.1 and the “mean symptom score, before treatment” value ([1]; double blind study, start value) was 21.0. The “white blood cell count, after treatment” value ([1]; patients with obtainable secretions, end value) was 5.3, the “white blood cell count, before treatment” value ([1]; patients with obtainable secretions, start value) was 16.8 and the bioavailability [2] was “does not have a high bioavailability”. The transmural intestinal absorption [2] was “relatively low”, the pain [3] was “controlled” and the severe urinary symptoms [3] was “least likely to improve”. For the same compound, the symptomatic response [3] was “significant”.
